biological target: T1, OR7C1 (Homo sapiens, UniProt O76099); assay: Luciferase-based CRE gene reporter assay, dose-response on OR7C1; type: cell-based; details: negative logarithm of the EC50 in Moles; semi-logarithmic dilutions from 1 mM to 316 nM on OR7C1
T1 construct: transfected with a plasmid containing the CRE-luciferase and a plasmid containing the olfactory receptor; expressed in transfected cells; host or cells: HEK293T-RTP1A1/RTP2 (HEK293T stably expressing the chaperones RTP1A1 and RTP2)
T1 sequence (O76099 1-320): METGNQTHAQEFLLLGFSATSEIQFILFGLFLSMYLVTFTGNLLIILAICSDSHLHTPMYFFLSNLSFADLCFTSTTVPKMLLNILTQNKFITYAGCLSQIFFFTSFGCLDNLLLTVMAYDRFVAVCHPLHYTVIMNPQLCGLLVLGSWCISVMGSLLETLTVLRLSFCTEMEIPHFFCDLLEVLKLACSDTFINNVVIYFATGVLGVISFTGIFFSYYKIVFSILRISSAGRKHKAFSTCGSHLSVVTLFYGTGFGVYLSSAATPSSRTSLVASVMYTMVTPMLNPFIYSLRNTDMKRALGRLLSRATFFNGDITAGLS
Procedure: HEK293T-RTP1A1/RTP2 cells were maintained in minimal essential medium (EMEM, Lonza) containing 10% fetal bovine serum (M10). These cells were generated by transfecting HEK293T (Thermofisher Scientific, cat ref: R70007) with an expression vector containing the sequences of the chaperone proteins RTP1A1 and RTP2 and a resistance gene to puromycin, using Lipofectamine 2000. The recombinant cell population, used in these experiments, was selected by adding 10 μg/ml of puromycin into the culture medium and subsequently subcloned (WO 2014/191047 A1).
Potential OR7C1 agonists were diluted at a concentration of 1 mole/liter (M) into an organic solvent such as Dimethyl Sulfoxide (DMSO) or Ethanol to generate stock solutions. […]
For concentration-response analysis, serial dilutions of the tested molecules were prepared from stock solutions in EMEM plated into 96-well plates.
For the dose-response analysis, a Luciferase-based gene reporter assay (Promega, Leiden, the Netherlands) was used. Briefly, cells were platted on poly-D-lysine-coated 96-well plates and transfected with a plasmid containing the CRE-luciferase and a plasmid containing the olfactory receptor. Sixteen hours after transfection, the culture medium was replaced by serum-free EMEM containing the tested compounds at a determined concentration. After four hours of incubation at 37° C., cells were lysed and processed for luminescence measurement. Luminescence emission was recorded. Results were expressed as luciferase activity ([…] (RLU)) or as percentage of the response induced by 10 μM of the adenylate cyclase activator Forskolin. An empty plasmid is used as negative control.
Dose-response analyses using the luciferase-based reporter assay were performed using semi-logarithmic serial dilutions of the compounds, from 1 mM to 316 nM, on OR7C1. 46 compounds were tested in concentration-response analyses. In each experiment, an empty vector (pEFIBRHO) was used as negative control. Values are given as the negative logarithm of the EC50 in Moles.

Compound | -LogEC50 (average n > 3)
Hydroxyambran [Compound 41] | 5.5
2-(2,2,7,7-Tetramethyl-5-tricyclo[6.2.1.01,6]undec-4-enyl)butan-1-ol [Compound 28] | 6.6
5-(1-Methoxybutan-2-yl)-2,2,7,7-tetramethyltricyclo[6.2.1.01,6]undec-5-ene [Compound 29] | 5.2

same assay, conditions: negative logarithm of the EC50 in Moles; semi-logarithmic dilutions from 1 mM to 316 nM on OR7C1; read-out: -LogEC50 (average n > 3) (converted)

Compound | EC50
CC(CO)C1CCC(C)(C)[C@@]23CC[C@@H](C2)C(C)(C)C13 (some centres unmarked) [Compound 39, 5-(1-Hydroxypropan-2-yl)isolongifolane] | 1.58 µM
C/C1=C/CCC2(C)OC2CC/C(C)=C\CC1 (centres unmarked) [Compound 44, (E)-woody epoxide] | 7.94 µM
CC1(C)C2C(=O)CCC(C)(C)[C@]23CC[C@H]1C3 (stereo partly drawn) [Compound 32, (1S,8S)-2,2,7,7-Tetramethyltricyclo[6.2.1.01,6]undecan-5-one] | 20 µM
CCC(COC)C1=CCC(C)(C)[C@@]23CC[C@@H](C2)C(C)(C)C13 (some centres unmarked) [Compound 31, 5-(1-methoxybutan-2-yl)isolongifol-4-ene] | 3.98 µM
COC[C@@H](C)C1=C2C(C)(C)[C@H]3CC[C@@]2(C3)C(C)(C)CC1 (stereo in doubt) [Compound 26, 5-(1-Methoxypropan-2-yl)-2,2,7,7-tetramethyltricyclo[6.2.1.01,6]undec-5-ene] | 2.51 µM
CCC(CO)C1=C2C(C)(C)[C@H]3CC[C@@]2(C3)C(C)(C)CC1 (some centres unmarked) [Compound 27, 5-(1-Hydroxybutan-2-yl)isolongifol-5-ene] | 3.16 µM
CCCC(O)COC1C(C)CCCC1(C)C (mixture of isomers) [Compound 14, 1-((2,2,6-trimethylcyclohexyl)oxy)pentan-2-ol] | 126 µM
CC1(C)CCC[C@]2(C)[C@H]3CCO[C@]3(C)CC[C@@H]12 [Compound 18, Ambroxan or (−)-Ambroxide] | 31.6 µM
CC(C=O)C1=C2C(C)(C)[C@H]3CC[C@@]2(C3)C(C)(C)CC1 (some centres unmarked) [Compound 21, 5-(1-Oxopropan-2-yl)isolongifol-5-ene] | 0.501 µM
CC1(C)C2C3OCOC3CC(C)(C)[C@]23CC[C@H]1C3 (stereo in doubt) [Compound 24, 2,2,10,10-Tetramethyl-5,7-dioxatetracyclo[9.2.1.01,9.04,8]tetradecane] | 10 µM
C[C@]12CCC(=O)C[C@@H]1CC[C@@H]1[C@@H]2CC[C@]2(C)C=CC[C@@H]12 [Compound 45, 5α-Androst-16-en-3-one] | 20 µM
CC1(C)CCC[C@]2(C)C[C@]3(CCC12)CO3 (stereo in doubt) [Compound 38, 4,4,8a-Trimethylspiro[2,3,4a,5,6,8-hexahydro-1H-naphthalene-7,2′-oxirane]] | 50.1 µM
CC1(C)C/C=C\CC/C=C\CCC2OC21C (centres unmarked) [Compound 43, Cedroxyde] | 2 µM
CC(=O)C1(C)CC2=C(CCCC2(C)C)CC1C (centres unmarked) [Compound 34, Sylvamber] | 25.1 µM
CC1O[C@@]12CC[C@H]1C(C)(C)CCC[C@]1(C)C2 (some centres unmarked) [Compound 36, 3′,4,4,8a-Tetramethylspiro[2,3,4a,5,6,8-hexahydro-1H-naphthalene-7,2′-oxirane]] | 20 µM
CCC(COC)C1=C2C(C)(C)[C@H]3CC[C@@]2(C3)C(C)(C)CC1 (some centres unmarked) [Compound 30, 5-(1-Methoxybutan-2-yl)isolongifol-5-ene] | 2.51 µM
CC1OC[C@H](C)C2(CC3CCC2(C)C3(C)C)O1 (stereo partly drawn) [Compound 10, 1′,2,5(S),7′,7′-Pentamethyl-spiro[1,3-dioxane-4,2′-bicyclo[2.2.1]heptane]] | 2.51 µM
CC(C)[C@]12C[C@@H]3OC(C)(C)O[C@]3(C)[C@H](C1)C(C)(C)C2 [Compound 13, 2,4,4,10,10-Pentamethyl-8-propan-2-yl-3,5-dioxatricyclo[6.2.1.02,6]undecane] | 0.398 µM
CC1CCC2C(C2(C)C)C12COC(C)(C)OC2 (centres unmarked) [Compound 12, Spirambrene] | 12.6 µM

Compound | EC50
C[C@H]1[C@]2(CCC3C(C)(C)CCC[C@@]31C)CO2 (some centres unmarked) [Compound 37, 4,4,8,8a-Tetramethylspiro[2,3,4a,5,6,8-hexahydro-1H-naphthalene-7,2′-oxirane]] | 501 µM
CC1O[C@@]12CC[C@H]1C(C)(C)CCC[C@]1(C)[C@H]2C (some centres unmarked) [Compound 35, 3′,4,4,8,8a-Pentamethylspiro[2,3,4a,5,6,8-hexahydro-1H-naphthalene-7,2′-oxirane]] | 31.6 µM
CCCC(O)CCC1C(C)CCCC1(C)C (centres unmarked) [Compound 1, Norlimbanol] | 3.98 µM
CC(=O)C1CC/C(C)=C\CC/C(C)=C\C/C=C\1C (centres unmarked) [Compound 42, Cyclisone/Trimofix] | 20 µM
CCCC(O)COC1C2(C)CCC(C2)C1(C)C (centres unmarked) [Compound 5, 1-((1,3,3-trimethylbicyclo[2.2.1]heptan-2-yl)oxy)pentan-2-ol] | 50.1 µM
CCCC(=O)COC1C2(C)CCC(C2)C1(C)C (centres unmarked) [Compound 6, 1-((1,3,3-trimethylbicyclo[2.2.1]heptan-2-yl)oxy)pentan-2-one] | 50.1 µM
CCC12CCC3C(C)(C)CCCC3(C)C1COC2 (centres unmarked) [Compound 3, Grisalva] | 25.1 µM
CC1OC2CC(C)(C)[C@@]34CC[C@@H](C3)C(C)(C)C4C2O1 (stereo in doubt) [Compound 23, 2,2,6,10,10-Pentamethyl-5,7-dioxatetracyclo[9.2.1.01,9.04,8]tetradecane] | 5.01 µM
CC(C)[C@H]1OCC[C@]2(CC3CC[C@]2(C)C3(C)C)O1 [Compound 9, Belambre] | 1.58 µM
CC1OCC(C)C2(CC3CCC2(C)C3(C)C)O1 (centres unmarked) [Compound 11, 1′,2,5,7′,7′-Pentamethylspiro[1,3-dioxane-4,2′-bicyclo[2.2.1]heptane]] | 2 µM
CCC(O)COC1CCCCC1C(C)(C)C (centres unmarked) [Compound 2, Ambercore] | 12.6 µM
CC(=O)OCC1CCC(C)(C)C23CC4C[C@H]2C13C4(C)C (some centres unmarked) [Compound 19, Amboryl acetate] | 63.1 µM
CCC1OC2CC(C)(C)[C@@]34CC[C@@H](C3)C(C)(C)C4C2O1 (stereo in doubt) [Compound 20, 6-Ethyl-2,2,10,10-tetramethyl-5,7-dioxatetracyclo[9.2.1.01,9.04,8]tetradecane] | 12.6 µM
CC(O)C(C)C1=C2C(C)(C)[C@H]3CC[C@@]2(C3)C(C)(C)CC1 (some centres unmarked) [Compound 22, 5-(3-Hydroxybutan-2-yl)isolongifol-5-ene] | 1.58 µM
CCC(O)COC1C2(C)CCC(C2)C1(C)C (centres unmarked) [Compound 7, 1-((1,3,3-trimethylbicyclo[2.2.1]heptan-2-yl)oxy)butan-2-ol] | 50.1 µM
CCOCOC1CCCCCCCCCCC1 [Compound 40, Boisambrene] | 50.1 µM
CC1(C)/C(=C\CO)C2CCC1C2 (racemic) [Compound 8, DL-Patchenol] | 31.6 µM
C[C@@]12C=CCC1C1CC=C3C[C@@H](O)CC[C@]3(C)C1CC2 (some centres unmarked) [Compound 46, Androstadienol] | 12.6 µM
CCC(O)COC1C(C)CCCC1(C)C (mixture of isomers) [Compound 15, 1-((2,2,6-trimethylcyclohexyl)oxy)butan-2-ol] | 126 µM

Source: patent publication US20240058240A1, “COMPOUNDS AS SELF-TANNING SUBSTANCES AND TANNING COMPOSITIONS THEREOF” (CHEMCOM S.A., priority 2020, published 2024)
